Experimental data from patent US10828315B2 (Madrigal Pharmaceuticals, Inc., priority 2013, dated 2020).
Values after ≈ are worked out from the molar mass of the structure shown. Read-outs that look alike come from different tables or passages of the source.

Experiments:
[1] = Metabolite profiling and identification; type: in vitro ADME; parameters: key: —: Not detected; settings: for Metabolite Hydrolysis (SN-38): M+1 393.3; for Metabolite Hydrolysis (SN-38) + H2O (carboxylate form): M+1 411.3; for Metabolite Hydrolysis (SDC-TRAP-0062): M+1 462.3; for Metabolite Hydrolysis (SDC-TRAP-0062) + N-dealkylation + glucuronide: M+1 527.3; for Metabolite Hydrolysis (SN-38) + glucuronidation: M+1 569.3; for Metabolite Hydrolysis (SN-38) + hydroxylation + glucuronidation: M+1 585.3; for Metabolite Hydrolysis (SDC-TRAP-0062) + glucuronidation: M+1 638.3; for Metabolite Hydrolysis (SDC-TRAP-0062) + oxidation + glucuronide: M+1 652.3; for Metabolite Hydrolysis (SDC-TRAP-0062) + di-oxidation + glucuronide: M+1 668.3; for Metabolite Hydrolysis (SDC-TRAP-0062) + H2O (ring opened) + glucuronide: M+1 670.3; for Metabolite Hydroxylation: M+1 896.3; for Metabolite Carboxylate form: M+1 898.3; for Metabolite Di-hydroxylation: M+1 912.4; for Metabolite Glucuronidation: M+1 1056.4
From the text: Metabolite Profiling and Identification: Metabolite profiling/identification for SDC-TRAP-0063 (M+1:880.3)

[2] = Chemical properties of SDC-TRAP-0063; type: physicochemical
From the text: SDC-TRAP-0063 is a light yellow solid having the following chemical properties: […]

[3] = mouse

SMILES: CCc1c2c(nc3ccc(OC(=O)N4CCC(CCn5ccc6cc(-n7c(O)nnc7-c7cc(C(C)C)c(O)cc7O)ccc65)CC4)cc13)-c1cc3c(c(=O)n1C2)COC(=O)[C@]3(O)CC [SDC-TRAP-0063, 4,11-diethyl-4-hydroxy-3,14-dioxo-3,4,12,14-tetrahydro-1H-pyrano[3′,4′:6,7]indolizino[1,2-b]quinolin-9-yl 4-(2-(5-(3-(2,4-dihydroxy-5-isopropylphenyl)-5-hydroxy-4H-1,2,4-triazol-4-yl)-1H-indol-1-yl)ethyl)piperidine-1-carboxylate]
- Metabolite Hydrolysis (SN-38) ([1]; Hepatocytes Dog): √
- Metabolite Hydrolysis (SN-38) + H2O (carboxylate form) ([1]; Hepatocytes Dog): —
- Metabolite Hydrolysis (SDC-TRAP-0062) ([1]; Hepatocytes Dog): —
- Metabolite Hydrolysis (SDC-TRAP-0062) + N-dealkylation + glucuronide ([1]; Hepatocytes Dog): —
- Metabolite Hydrolysis (SN-38) + glucuronidation ([1]; Hepatocytes Dog): —
- Metabolite Hydrolysis (SN-38) + hydroxylation + glucuronidation ([1]; Hepatocytes Dog): —
- Metabolite Hydrolysis (SDC-TRAP-0062) + glucuronidation ([1]; Hepatocytes Dog): —
- Metabolite Hydrolysis (SDC-TRAP-0062) + oxidation + glucuronide ([1]; Hepatocytes Dog): —
- Metabolite Hydrolysis (SDC-TRAP-0062) + di-oxidation + glucuronide ([1]; Hepatocytes Dog): —
- Metabolite Hydrolysis (SDC-TRAP-0062) + H2O (ring opened) + glucuronide ([1]; Hepatocytes Dog): —
- Metabolite Hydroxylation ([1]; Hepatocytes Dog): √
- Metabolite Carboxylate form ([1]; Hepatocytes Dog): √
- Metabolite Di-hydroxylation ([1]; Hepatocytes Dog): √
- Metabolite Glucuronidation ([1]; Hepatocytes Dog): √
- Metabolite Hydrolysis (SN-38) ([1]; Hepatocytes Human): —
- Metabolite Hydrolysis (SN-38) + H2O (carboxylate form) ([1]; Hepatocytes Human): —
- Metabolite Hydrolysis (SDC-TRAP-0062) ([1]; Hepatocytes Human): —
- Metabolite Hydrolysis (SDC-TRAP-0062) + N-dealkylation + glucuronide ([1]; Hepatocytes Human): —
- Metabolite Hydrolysis (SN-38) + glucuronidation ([1]; Hepatocytes Human): √
- Metabolite Hydrolysis (SN-38) + hydroxylation + glucuronidation ([1]; Hepatocytes Human): —
- Metabolite Hydrolysis (SDC-TRAP-0062) + glucuronidation ([1]; Hepatocytes Human): —
- Metabolite Hydrolysis (SDC-TRAP-0062) + oxidation + glucuronide ([1]; Hepatocytes Human): —
- Metabolite Hydrolysis (SDC-TRAP-0062) + di-oxidation + glucuronide ([1]; Hepatocytes Human): —
- Metabolite Hydrolysis (SDC-TRAP-0062) + H2O (ring opened) + glucuronide ([1]; Hepatocytes Human): —
- Metabolite Hydroxylation ([1]; Hepatocytes Human): —
- Metabolite Carboxylate form ([1]; Hepatocytes Human): —
- Metabolite Di-hydroxylation ([1]; Hepatocytes Human): —
- Metabolite Glucuronidation ([1]; Hepatocytes Human): √
- Metabolite Hydrolysis (SN-38) ([1]; Hepatocytes Monkey): √
- Metabolite Hydrolysis (SDC-TRAP-0062) ([1]; Hepatocytes Monkey): —
- Metabolite Hydrolysis (SDC-TRAP-0062) + N-dealkylation + glucuronide ([1]; Hepatocytes Monkey): —
- Metabolite Hydrolysis (SN-38) + glucuronidation ([1]; Hepatocytes Monkey): √
- Metabolite Hydrolysis (SN-38) + hydroxylation + glucuronidation ([1]; Hepatocytes Monkey): √
- Metabolite Hydrolysis (SDC-TRAP-0062) + glucuronidation ([1]; Hepatocytes Monkey): —
- Metabolite Hydrolysis (SDC-TRAP-0062) + oxidation + glucuronide ([1]; Hepatocytes Monkey): —
- Metabolite Hydrolysis (SDC-TRAP-0062) + di-oxidation + glucuronide ([1]; Hepatocytes Monkey): —
- Metabolite Hydrolysis (SDC-TRAP-0062) + H2O (ring opened) + glucuronide ([1]; Hepatocytes Monkey): —
- Metabolite Hydroxylation ([1]; Hepatocytes Monkey): —
- Metabolite Carboxylate form ([1]; Hepatocytes Monkey): —
- Metabolite Di-hydroxylation ([1]; Hepatocytes Monkey): —
- Metabolite Hydrolysis (SN-38) ([1]; Hepatocytes Mouse): —
- Metabolite Hydrolysis (SN-38) + H2O (carboxylate form) ([1]; Hepatocytes Mouse): —
- Metabolite Hydrolysis (SDC-TRAP-0062) ([1]; Hepatocytes Mouse): —
- Metabolite Hydrolysis (SDC-TRAP-0062) + N-dealkylation + glucuronide ([1]; Hepatocytes Mouse): —
- Metabolite Hydrolysis (SN-38) + glucuronidation ([1]; Hepatocytes Mouse): —
- Metabolite Hydrolysis (SN-38) + hydroxylation + glucuronidation ([1]; Hepatocytes Mouse): —
- Metabolite Hydrolysis (SDC-TRAP-0062) + glucuronidation ([1]; Hepatocytes Mouse): —
- Metabolite Hydrolysis (SDC-TRAP-0062) + oxidation + glucuronide ([1]; Hepatocytes Mouse): —
- Metabolite Hydrolysis (SDC-TRAP-0062) + di-oxidation + glucuronide ([1]; Hepatocytes Mouse): —
- Metabolite Hydrolysis (SDC-TRAP-0062) + H2O (ring opened) + glucuronide ([1]; Hepatocytes Mouse): —
- Metabolite Hydroxylation ([1]; Hepatocytes Mouse): —
- Metabolite Carboxylate form ([1]; Hepatocytes Mouse): —
- Metabolite Di-hydroxylation ([1]; Hepatocytes Mouse): —
- Metabolite Glucuronidation ([1]; Hepatocytes Mouse): √
- Metabolite Hydrolysis (SN-38) ([1]; Hepatocytes Rat): —
- Metabolite Hydrolysis (SN-38) + H2O (carboxylate form) ([1]; Hepatocytes Rat): —
- Metabolite Hydrolysis (SDC-TRAP-0062) ([1]; Hepatocytes Rat): —
- Metabolite Hydrolysis (SDC-TRAP-0062) + N-dealkylation + glucuronide ([1]; Hepatocytes Rat): —
- Metabolite Hydrolysis (SN-38) + glucuronidation ([1]; Hepatocytes Rat): √
- Metabolite Hydrolysis (SN-38) + hydroxylation + glucuronidation ([1]; Hepatocytes Rat): —
- Metabolite Hydrolysis (SDC-TRAP-0062) + glucuronidation ([1]; Hepatocytes Rat): —
- Metabolite Hydrolysis (SDC-TRAP-0062) + oxidation + glucuronide ([1]; Hepatocytes Rat): —
- Metabolite Hydrolysis (SDC-TRAP-0062) + di-oxidation + glucuronide ([1]; Hepatocytes Rat): —
- Metabolite Hydrolysis (SDC-TRAP-0062) + H2O (ring opened) + glucuronide ([1]; Hepatocytes Rat): —
- Metabolite Hydroxylation ([1]; Hepatocytes Rat): —
- Metabolite Carboxylate form ([1]; Hepatocytes Rat): —
- Metabolite Di-hydroxylation ([1]; Hepatocytes Rat): —
- Metabolite Hydrolysis (SN-38) ([1]; Mouse in vivo Plasma 6 h): √
- Metabolite Hydrolysis (SN-38) + H2O (carboxylate form) ([1]; Mouse in vivo Plasma 6 h): √
- Metabolite Hydrolysis (SDC-TRAP-0062) ([1]; Mouse in vivo Plasma 6 h): √
- Metabolite Hydrolysis (SDC-TRAP-0062) + N-dealkylation + glucuronide ([1]; Mouse in vivo Plasma 6 h): √
- Metabolite Hydrolysis (SN-38) + glucuronidation ([1]; Mouse in vivo Plasma 6 h): √
- Metabolite Hydrolysis (SN-38) + hydroxylation + glucuronidation ([1]; Mouse in vivo Plasma 6 h): —
- Metabolite Hydrolysis (SDC-TRAP-0062) + glucuronidation ([1]; Mouse in vivo Plasma 6 h): √
- Metabolite Hydrolysis (SDC-TRAP-0062) + oxidation + glucuronide ([1]; Mouse in vivo Plasma 6 h): √
- Metabolite Hydrolysis (SDC-TRAP-0062) + di-oxidation + glucuronide ([1]; Mouse in vivo Plasma 6 h): √
- Metabolite Hydrolysis (SDC-TRAP-0062) + H2O (ring opened) + glucuronide ([1]; Mouse in vivo Plasma 6 h): √
- Metabolite Hydroxylation ([1]; Mouse in vivo Plasma 6 h): —
- Metabolite Carboxylate form ([1]; Mouse in vivo Plasma 6 h): √
- Metabolite Di-hydroxylation ([1]; Mouse in vivo Plasma 6 h): —
- Metabolite Glucuronidation ([1]; Mouse in vivo Plasma 6 h): √
- Metabolite Hydrolysis (SN-38) ([1]; Mouse in vivo Tumor 24 h): √
- Metabolite Hydrolysis (SN-38) + H2O (carboxylate form) ([1]; Mouse in vivo Tumor 24 h): √
- Metabolite Hydrolysis (SDC-TRAP-0062) ([1]; Mouse in vivo Tumor 24 h): √
- Metabolite Hydrolysis (SDC-TRAP-0062) + N-dealkylation + glucuronide ([1]; Mouse in vivo Tumor 24 h): —
- Metabolite Hydrolysis (SN-38) + glucuronidation ([1]; Mouse in vivo Tumor 24 h): √
- Metabolite Hydrolysis (SN-38) + hydroxylation + glucuronidation ([1]; Mouse in vivo Tumor 24 h): —
- Metabolite Hydrolysis (SDC-TRAP-0062) + glucuronidation ([1]; Mouse in vivo Tumor 24 h): √
- Metabolite Hydrolysis (SDC-TRAP-0062) + oxidation + glucuronide ([1]; Mouse in vivo Tumor 24 h): —
- Metabolite Hydrolysis (SDC-TRAP-0062) + di-oxidation + glucuronide ([1]; Mouse in vivo Tumor 24 h): —
- Metabolite Hydrolysis (SDC-TRAP-0062) + H2O (ring opened) + glucuronide ([1]; Mouse in vivo Tumor 24 h): —
- Metabolite Hydroxylation ([1]; Mouse in vivo Tumor 24 h): —
- Metabolite Carboxylate form ([1]; Mouse in vivo Tumor 24 h): √
- Metabolite Di-hydroxylation ([1]; Mouse in vivo Tumor 24 h): —
- Metabolite Glucuronidation ([1]; Mouse in vivo Tumor 24 h): √
- logP [2]: 4.69
- pKa [2]: 9.27
- Stability remark beside solubility ([2]; In water (pH = 11.8*)): not stable
- solubility ([2]; aqueous buffer, In water (pH = 9.7)): 33 µg/mL (≈ 37.5 µM)
- solubility ([2]; aqueous buffer, In water (pH = 11.8*)): 926 µg/mL (≈ 1050 µM)
- solubility ([2]; ethanol, organic solvent or mixture, In EtOH): 1560 µg/mL (≈ 1770 µM)
- solubility ([2]; organic solvent or mixture, In PEG300): 5640 µg/mL (≈ 6410 µM)
- Peak Area Ratio ([3]; 0 h, 10 μM): 17.9
- Peak Area Ratio ([3]; 0.5 h, 10 μM): 7.77
- Peak Area Ratio ([3]; 1 h, 10 μM): 1.98
- Peak Area Ratio ([3]; […], 10 μM): 15.6
- % Remaining (1 h) ([3]; plasma, 1 h, 10 µM): 11.1%
- % Remaining (1 h, 37° C.) ([3]; plasma, 1 h, 10 µM): 11.1%
- % Remaining (1 h) ([3]; plasma, 1 h, 10 μM): 11.1%
